Measurements: US12371454B2, “Cyclic peptide compound having Kras inhibitory action” (priority 2019, dated 2025)
pIC50: −log10 of the molar value. Positions of bridges follow the written chain, without caps; N, C: chain ends. Non-standard residues stand in square brackets, D forms with d. Residues, ends and D or L forms follow the SMILES beside them. *: point of attachment. hPhe(3-Cl-4-CF3) = N[C@@H](CCc1ccc(C(F)(F)F)c(Cl)c1)C(=O)O; hPhe(3-F,4-CF3) = N[C@@H](CCc1ccc(C(F)(F)F)c(F)c1)C(=O)O; NMePhe(4-CF3) = CN[C@@H](Cc1ccc(C(F)(F)F)cc1)C(=O)O; hPhe(4-CF3) = N[C@@H](CCc1ccc(C(F)(F)F)cc1)C(=O)O; NMePhe(4-Me) = CN[C@@H](Cc1ccc(C)cc1)C(=O)O; NMeNle(6-CHF2) = CN[C@@H](CCCCC(F)F)C(=O)O; NMeGly(cPent) = CN[C@H](C(=O)O)C1CCCC1; Pro(4,4-F2) = O=C(O)[C@@H]1CC(F)(F)CN1; NMeCha = CN[C@@H](CC1CCCCC1)C(=O)O; NMeD = CN[C@@H](CC(=O)O)C(=O)O; CH2CONHtBu = CC(C)(C)NC(=O)C*; NMeL = CN[C@@H](CC(C)C)C(=O)O; d(β3hA) = C[C@@H](N)CC(=O)O; NMeS = CN[C@@H](CO)C(=O)O; NMeA = CN[C@@H](C)C(=O)O; Nle = CCCC[C@H](N)C(=O)O; Piperidide = C1CCN(*)CC1; Pyrrolidide = C1CCN(*)C1; dNMeA = CN[C@H](C)C(=O)O; Ac5c = NC1(C(=O)O)CCCC1; Aze = O=C(O)[C@@H]1CCN1; Ac4c = NC1(C(=O)O)CCC1; CH2CMe2OH = CC(C)(O)C*; Aib = CC(C)(N)C(=O)O; Isopentyl = CC(C)CC*; NEtG = CCNCC(=O)O; Sar = CNCC(=O)O

target: T1, Kras and SOS1 (biotin-tagged human Kras loaded with GDP, His-tagged human SOS1) (Homo sapiens, UniProt P01116, G12D); assay: Protein-protein interaction inhibition between Kras and SOS1 (KrasGl2D-SOS PPI) using AlphaScreen; assay type: binding; conditions: AlphaScreen; biotin-tagged human Kras loaded with GDP, His-tagged human SOS1; read-out: KRAS G12D-SOS PPI IC50
T1 construct: made in house; host or cells: E. coli (stated for Kras only)
T1 sequence (P01116 1-188 isoform P01116-2 G12D): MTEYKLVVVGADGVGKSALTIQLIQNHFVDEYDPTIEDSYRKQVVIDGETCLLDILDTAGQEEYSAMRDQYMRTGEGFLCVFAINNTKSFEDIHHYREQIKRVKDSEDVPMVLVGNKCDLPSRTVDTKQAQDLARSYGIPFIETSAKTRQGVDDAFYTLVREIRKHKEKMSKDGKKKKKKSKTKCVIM
How it was run: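 Donor beads (nickel) hold His-SOS1; acceptor beads (streptavidin) hold biotin-Kras bound to GDP. Signal measured at 520-620 nm following 680 nm excitation.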

SMILES	pIC50
CC[C@H](C)[C@@H]1NC(=O)[C@H](CC(C)C)N(C)C(=O)C[C@@H](C)NC(=O)[C@H](CC(C)C)N(C)C(=O)C(C)(C)NC(=O)[C@H](COCC(C)(C)O)N(C)C(=O)[C@H](CCc2ccc(C(F)(F)F)c(Cl)c2)NC(=O)CN(C)C(=O)[C@H](COCCC(C)C)N(C)C(=O)[C@@H]2CCN2C(=O)CN(CC)C1=O [Compound 1472] (cyclo([Aib][NMeL][d(β3hA)][NMeL]I[NEtG][Aze][NMeS](Isopentyl)[Sar][hPhe(3-Cl-4-CF3)][NMeS](CH2CMe2OH)))	7.17
CC[C@H](C)[C@@H]1NC(=O)[C@H](C)N(C)C(=O)C[C@@H](C)NC(=O)[C@H](C2CCCC2)N(C)C(=O)C2(CCCC2)NC(=O)[C@@H]2CCCN2C(=O)[C@H](CCc2ccc(C(F)(F)F)c(Cl)c2)NC(=O)CN(C)C(=O)[C@H](CC2CCCCC2)N(C)C(=O)CN(C)C(=O)CN(C)C1=O [Compound 1478] (cyclo([Ac5c][NMeGly(cPent)][d(β3hA)][NMeA]I[Sar][Sar][NMeCha][Sar][hPhe(3-Cl-4-CF3)]P))	8.52
CC[C@H](C)[C@@H]1NC(=O)[C@H](C)N(C)C(=O)C[C@@H](C)NC(=O)[C@H](C2CCCC2)N(C)C(=O)C2(CCCC2)NC(=O)[C@@H]2CCCN2C(=O)[C@H](CCc2ccc(C(F)(F)F)c(Cl)c2)NC(=O)[C@H]2CCCN2C(=O)[C@H](CC2CCCCC2)N(C)C(=O)[C@@H]2CCN2C(=O)CN(C)C1=O [Compound 1479] (cyclo([Ac5c][NMeGly(cPent)][d(β3hA)][NMeA]I[Sar][Aze][NMeCha][dP][hPhe(3-Cl-4-CF3)]P))	6.92
CC[C@H](C)[C@@H]1NC(=O)[C@H](CC(C)C)N(C)C(=O)C[C@@H](C(=O)N2CCCCC2)N(C)C(=O)[C@H](CC(C)C)N(C)C(=O)C(C)(C)NC(=O)[C@H](COCC(=O)NC(C)(C)C)N(C)C(=O)[C@H](CCc2ccc(C(F)(F)F)c(Cl)c2)NC(=O)CN(C)C(=O)[C@H](COCCC(C)C)N(C)C(=O)CN(C)C(=O)CN(C)C1=O [Compound 1480] ([NMeL]I[Sar][Sar][NMeS](Isopentyl)[Sar][hPhe(3-Cl-4-CF3)][NMeS](CH2CONHtBu)[Aib][NMeL][NMeD]-Piperidide; lactam N-11)	8.05
CC[C@H](C)[C@@H]1NC(=O)[C@H](CC(C)C)N(C)C(=O)C[C@@H](C)NC(=O)[C@H](CC(C)C)N(C)C(=O)C(C)(C)NC(=O)[C@H](COCC(C)(C)O)N(C)C(=O)[C@H](CCc2ccc(C(F)(F)F)c(Cl)c2)NC(=O)CN(C)C(=O)[C@H](COCCC(C)C)N(C)C(=O)CN(CC)C(=O)CN(C)C1=O [Compound 1484] (cyclo([Aib][NMeL][d(β3hA)][NMeL]I[Sar][NEtG][NMeS](Isopentyl)[Sar][hPhe(3-Cl-4-CF3)][NMeS](CH2CMe2OH)))	6.72
CC[C@H](C)[C@@H]1NC(=O)[C@H](CC(C)C)N(C)C(=O)C[C@@H](C)NC(=O)[C@H](C2CCCC2)N(C)C(=O)C2(CCCC2)NC(=O)[C@@H]2CCCN2C(=O)[C@H](CCc2ccc(C(F)(F)F)c(Cl)c2)NC(=O)[C@H]2CCCN2C(=O)[C@H](Cc2ccc(C)cc2)N(C)C(=O)CN(C)C(=O)CN(C)C1=O [Compound 1487] (cyclo([Ac5c][NMeGly(cPent)][d(β3hA)][NMeL]I[Sar][Sar][NMePhe(4-Me)][dP][hPhe(3-Cl-4-CF3)]P))	6.47
CC[C@H](C)[C@@H]1NC(=O)[C@H](CC(C)C)N(C)C(=O)C[C@@H](C)NC(=O)[C@H](C2CCCC2)N(C)C(=O)C2(CCCC2)NC(=O)[C@@H]2CCCN2C(=O)[C@H](CCc2ccc(C(F)(F)F)c(Cl)c2)NC(=O)[C@H]2CCCN2C(=O)[C@H](Cc2ccc(C)cc2)N(C)C(=O)[C@@H]2CCN2C(=O)CN(C)C1=O [Compound 1488] (cyclo([Ac5c][NMeGly(cPent)][d(β3hA)][NMeL]I[Sar][Aze][NMePhe(4-Me)][dP][hPhe(3-Cl-4-CF3)]P))	6.59
CC[C@H](C)[C@@H]1NC(=O)[C@H](CC(C)C)N(C)C(=O)C[C@@H](C(=O)N2CCCC2)NC(=O)[C@H](CC(C)C)N(C)C(=O)C2(CCCC2)NC(=O)[C@@H]2CCCN2C(=O)[C@H](CCc2ccc(C(F)(F)F)c(F)c2)NC(=O)CN(C)C(=O)[C@H](CC2CCCCC2)N(C)C(=O)CN(C)C(=O)CN(C)C1=O [Compound 1489] ([NMeL]I[Sar][Sar][NMeCha][Sar][hPhe(3-F,4-CF3)]P[Ac5c][NMeL]D-Pyrrolidide; lactam N-11)	7.74
CCCC[C@@H]1NC(=O)[C@H](CC(C)C)N(C)C(=O)C[C@@H](C)NC(=O)[C@H](CC(C)C)N(C)C(=O)C2(CCCC2)NC(=O)[C@@H]2CCCN2C(=O)[C@H](CCc2ccc(C(F)(F)F)c(F)c2)NC(=O)CN(C)C(=O)[C@H](CC2CCCCC2)N(C)C(=O)CN(C)C(=O)CN(C)C1=O [Compound 1490] (cyclo([Ac5c][NMeL][d(β3hA)][NMeL][Nle][Sar][Sar][NMeCha][Sar][hPhe(3-F,4-CF3)]P))	6.49
CC(C)C[C@H]1C(=O)N[C@@H](C(C)C)C(=O)N(C)CC(=O)N(C)CC(=O)N(C)[C@@H](CC2CCCCC2)C(=O)N(C)CC(=O)N[C@@H](CCc2ccc(C(F)(F)F)c(F)c2)C(=O)N2CCC[C@H]2C(=O)NC2(CCCC2)C(=O)N(C)[C@@H](CC(C)C)C(=O)N[C@H](C)CC(=O)N1C [Compound 1493] (cyclo([Ac5c][NMeL][d(β3hA)][NMeL]V[Sar][Sar][NMeCha][Sar][hPhe(3-F,4-CF3)]P))	7.00
CC[C@H](C)[C@@H]1NC(=O)[C@H](C)N(C)C(=O)C[C@@H](C)NC(=O)[C@H](C2CCCC2)N(C)C(=O)C2(CCCC2)NC(=O)[C@@H]2CCCN2C(=O)[C@H](CCc2ccc(C(F)(F)F)c(Cl)c2)NC(=O)[C@H]2CCCN2C(=O)[C@H](Cc2ccc(C)cc2)N(C)C(=O)[C@@H]2CCN2C(=O)CN(C)C1=O [Compound 1494] (cyclo([Ac5c][NMeGly(cPent)][d(β3hA)][NMeA]I[Sar][Aze][NMePhe(4-Me)][dP][hPhe(3-Cl-4-CF3)]P))	6.85
CC[C@H](C)[C@@H]1NC(=O)[C@H](CC(C)C)N(C)C(=O)C[C@@H](C(=O)N2CCCCC2)N(C)C(=O)[C@H](CC(C)C)N(C)C(=O)C(C)(C)NC(=O)[C@H](COCC(=O)NC(C)(C)C)N(C)C(=O)[C@H](CCc2ccc(C(F)(F)F)cc2)NC(=O)CN(C)C(=O)[C@H](COCCC(C)C)N(C)C(=O)CN(C)C(=O)CN(C)C1=O [Compound 1502] ([NMeL]I[Sar][Sar][NMeS](Isopentyl)[Sar][hPhe(4-CF3)][NMeS](CH2CONHtBu)[Aib][NMeL][NMeD]-Piperidide; lactam N-11)	7.62
CC[C@H](C)[C@@H]1NC(=O)[C@H](CC(C)C)N(C)C(=O)C[C@@H](C)NC(=O)[C@H](CC(C)C)N(C)C(=O)C2(CCCC2)NC(=O)[C@@H]2CCCN2C(=O)[C@H](CCc2ccc(C(F)(F)F)c(Cl)c2)NC(=O)CN(C)C(=O)[C@H](CC2CCCCC2)N(C)C(=O)CN(C)C(=O)CN(C)C1=O [Compound 1503] (cyclo([Ac5c][NMeL][d(β3hA)][NMeL]I[Sar][Sar][NMeCha][Sar][hPhe(3-Cl-4-CF3)]P))	7.80
CC[C@H](C)[C@@H]1NC(=O)[C@H](C)N(C)C(=O)C[C@@H](C)NC(=O)[C@H](C2CCCC2)N(C)C(=O)C2(CCC2)NC(=O)[C@@H]2CCCN2C(=O)[C@H](CCc2ccc(C(F)(F)F)c(Cl)c2)NC(=O)CN(C)C(=O)[C@H](CC2CCCCC2)N(C)C(=O)CN(C)C(=O)CN(C)C1=O [Compound 1506] (cyclo([Ac4c][NMeGly(cPent)][d(β3hA)][NMeA]I[Sar][Sar][NMeCha][Sar][hPhe(3-Cl-4-CF3)]P))	8.54
CC[C@H](C)[C@@H]1NC(=O)[C@H](C)N(C)C(=O)C[C@@H](C)NC(=O)[C@H](C2CCCC2)N(C)C(=O)C2(CCCC2)NC(=O)[C@@H]2CCCN2C(=O)[C@H](CCc2ccc(C(F)(F)F)c(Cl)c2)NC(=O)[C@@H](C)N(C)C(=O)[C@H](Cc2ccc(C(F)(F)F)cc2)N(C)C(=O)[C@@H]2CCN2C(=O)CN(C)C1=O [Compound 1507] (cyclo([Ac5c][NMeGly(cPent)][d(β3hA)][NMeA]I[Sar][Aze][NMePhe(4-CF3)][dNMeA][hPhe(3-Cl-4-CF3)]P))	7.62
CC[C@H](C)[C@@H]1NC(=O)[C@H](CC(C)C)N(C)C(=O)C[C@@H](C)NC(=O)[C@H](CC(C)C)N(C)C(=O)C2(CCCC2)NC(=O)[C@@H]2CC(F)(F)CN2C(=O)[C@H](CCc2ccc(C(F)(F)F)c(F)c2)NC(=O)CN(C)C(=O)[C@H](CC2CCCCC2)N(C)C(=O)CN(C)C(=O)CN(C)C1=O [Compound 1509] (cyclo([Ac5c][NMeL][d(β3hA)][NMeL]I[Sar][Sar][NMeCha][Sar][hPhe(3-F,4-CF3)][Pro(4,4-F2)]))	7.64
CC[C@H](C)[C@@H]1NC(=O)[C@H](C)N(C)C(=O)C[C@@H](C)NC(=O)[C@H](C2CCCC2)N(C)C(=O)C2(CCCC2)NC(=O)[C@@H]2CCCN2C(=O)[C@H](CCc2ccc(C(F)(F)F)c(Cl)c2)NC(=O)[C@@H](C)N(C)C(=O)[C@H](CC2CCCCC2)N(C)C(=O)[C@@H]2CCN2C(=O)[C@H](C)N(C)C1=O [Compound 1510] (cyclo([Ac5c][NMeGly(cPent)][d(β3hA)][NMeA]I[NMeA][Aze][NMeCha][dNMeA][hPhe(3-Cl-4-CF3)]P))	6.96
CC[C@H](C)[C@@H]1NC(=O)[C@H](CC(C)C)N(C)C(=O)C[C@@H](C)NC(=O)[C@H](CC(C)C)N(C)C(=O)C(C)(C)NC(=O)[C@H](COCC(=O)NC(C)(C)C)N(C)C(=O)[C@H](CCc2ccc(C(F)(F)F)c(Cl)c2)NC(=O)CN(C)C(=O)[C@H](COCCC(C)C)N(C)C(=O)[C@@H]2CCN2C(=O)CN(CC)C1=O [Compound 1513] (cyclo([Aib][NMeL][d(β3hA)][NMeL]I[NEtG][Aze][NMeS](Isopentyl)[Sar][hPhe(3-Cl-4-CF3)][NMeS](CH2CONHtBu)))	6.57
CC[C@H](C)[C@@H]1NC(=O)[C@H](CC(C)C)N(C)C(=O)C[C@@H](C)NC(=O)[C@H](CC(C)C)N(C)C(=O)C2(CCCC2)NC(=O)[C@@H]2CCCN2C(=O)[C@H](CCc2ccc(C(F)(F)F)c(F)c2)NC(=O)CN(C)C(=O)[C@H](CCCCC(F)F)N(C)C(=O)CN(C)C(=O)CN(C)C1=O [Compound 1515] (cyclo([Ac5c][NMeL][d(β3hA)][NMeL]I[Sar][Sar][NMeNle(6-CHF2)][Sar][hPhe(3-F,4-CF3)]P))	7.11
